Series [1] deals with SDH-KO-HRAS cells (SDHB-deficient). Nature of the series: Cellular / differential toxicity assay (CellTiter-Glo, 3 days). It is filed as cell-based, murine. The conditions noted are these: for EC50: Mus musculus, 72 h; for differential toxicity, SDH-KO cells compared to SDH-WT cells: viability EC50s, Example 6. In short, it runs like this: (§1)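 Isogenic SDHB-deficient (HRAS-transformed SDH-KO) and SDH-WT cells grown in DMEM-F12 with 1 mM glutamine and 3% FBS, plated with compound (10-point dilution from 10 uM to 0.0065 uM or lower) for 3 days at 37 °C, 5% CO2. Viability by CellTiter-Glo luminescence; EC50 calculated.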

The next series deals with SDH-WT cells. Described as above. It is filed as cell-based, murine. The conditions noted are these: Mus musculus, 72 h. The procedure, abridged:
as §1

For series [2], the system named is 2-DeoxyGlucose phosphorylation in murine SDH-WT cells. The series is described as follows: 2 DG phosphorylation assay. The series is classed as cell-based. As to conditions: Mus musculus, 0.25 h, 15 min, LC-MS. The method, then: IC50 of compound 145 and GluT1 inhibitor […] in a 2 DG phosphorylation assay was done using murine SDH-WT cells. The cells were treated for 15 min with the indicated compound at different concentrations in the presence of 2 DG. 2 DG phosphorylation was determined by LC-MS analysis and the inhibition IC50 was determined by Prism software.

For the next series, the system named is UOK269 (SDHB-def.) RCC. The series is described as follows: Cell viability in SDH-deficient/proficient isogenic pairs. The series is classed as cell-based, Human. The conditions noted are these: Homo sapiens, tumor-derived, 72 hours. The method, then: (§2) The cells were grown in DMEM F12 supplemented with 1 mM Glutamine+3% FBS were treated with different concentrations of the indicated compounds. Cell viability was determined 72 hours later by CellTiter Glue reagent (Promega), the luminescence was measured with ClarioStar reader (BMG) and the EC50s were calculated by Prism. Murine SDHB-WT/KO, HRAS transformed isogenic pair (FIG. 12A); UOK269, Human Tumor-derived SDHB-deficient RCC in their WT counterpart with re-expression of SDHB (FIG. 12B); and ACHN, RCC cells, and their SDHB-KO (SDHB CRISPRed out) isogenic cells (FIG. 12C).

For series [3], the system named is UOK269-WT (re-expression of SDHB). The description is as above. The series is classed as cell-based, Human. As to conditions: Homo sapiens, tumor-derived, 72 hours. How it is done: as §2
The test system of series [4] is ACHN SDHB −/− (SDHB CRISPRed out). Described as above. As to conditions: Homo sapiens, cancer cells, 72 hours. The series is classed as cell-based. The method, then:
as §2

The test system of the next series is ACHN WT, RCC cells. The description is as above. The series is classed as cell-based. As to conditions: Homo sapiens, cancer cells, 72 hours. How it is done:
as §2

Series [5] deals with m+3 lactate secretion (glycolysis) in SDH-KO cells. The series is described as follows: Glycolysis inhibition (IC50 Lactate m+3). The conditions noted are these: 1 h, 25 mM 13C-glucose, one hour. The series is classed as cell-based. The method, then:
(§3) Glycolysis Inhibition (IC50 Lactate m+3)
(§4) Cell were plated in DMEM, 25 mM Glucose, 1 mM Pyruvate, 1 mM Glutamine and 10% Dialyzed serum in 96 well plates in triplicates. The day after the medium was replaced to fresh medium with 25 mM ^13C-glucose and treated with different concentrations of the compounds as indicated. One hour later the medium was collected and the level of m+3 lactate was determined by LC-MS. The IC50 of inhibition of m+3 lactate secretion into the medium was calculated with Prism.

For series [6], the system named is m+3 lactate secretion (glycolysis) in SDH-WT cells. The series is described as follows: Glycolysis inhibition (IC50 Lactate m+3). The conditions noted are these: 1 h, 25 mM 13C-glucose, one hour. The series is classed as cell-based. The method, then:
as §3, §4

The nature of series [7]: PK profile (plasma and brain concentration). The series is classed as in vivo. The method, then: FIG. 14 describes the pharmacokinetics of compound 332.
FIG. 14A depicts the Mean Plasma Concentration of Compound 332 after IP7, IV bolus1 and PO2 Dosing. FIG. 14B depicts the Mean Brain Concentration of Compound 332 after IP Dosing at 2.50 mg/kg and FIG. 14C depicts the Mean Brain Concentration of Compound 332 after IV bolus Dosing at 2.50 mg/kg.

The mark [8] stands for this setting: toxicity, SDH-KO cells, 3 days, CellTiter-Glo, read-out: EC50 (uM) SDH-KO-HTAS-C17.
Setting [9] is: toxicity, SDH-WT cells, 3 days, CellTiter-Glo, read-out: EC50 (uM) SDH-WT.

Where two headings read alike, the source gives them in different places.

In the case of `Cc1c(NC(=O)c2cc(C(N)=O)nc3cc(F)ccc23)c(C(F)(F)F)nn1Cc1ccc(C#N)cc1` [BAY-876, reference compound], the EC50 in series [1] (Murine SDH-KO, transformed, 72 hours, Example 8, read-out: EC50) turned out to be 0.95 nM; in the series with SDH-WT cells (Murine SDH-WT, transformed, 72 hours, Example 8, read-out: EC50), 0.134 µM; in the series on UOK269 (SDHB-def.) RCC it was 15 nM; in series [3], 5300 nM; in series [4] it was 256 nM; with ACHN WT, RCC cells it was 24200 nM. In addition, the IC50 in [2] was 21.6 nM.

As for `COCc1c2c(nc3sc4c(NCCc5ccc6[nH]cnc6c5)ncnc4c13)CC(C)(C)OC2` [Compound 308, N-(2-(1H-Benzo[d]imidazol-5-yl)ethyl)-11-(methoxymethyl)-8,8-dimethyl-7,10-dihydro-8H-pyrano[3″,4″:5′,6′]pyrido[3′,2′:4,5]thieno[3,2-d]pyrimidin-4-amine], the half-maximal effective concentration (EC50) in series [1] (SDH-KO cells, 72 hours, Example 7, read-out: EC50 Tox) is 0.004 nM; in series [1] (setting [8]), less than 1000 nM; in the series on SDH-WT cells (SDH-WT cells, 72 hours, Example 7, read-out: EC50 Tox), 2.17 µM; with SDH-WT cells (setting [9]), 1 to 3 µM. Moreover, in series [1] (cell viability, Example 7), the “differential effect between SDH-WT and KO cells (EC50 Tox)” value is listed as > 500,000 folds. The 50% inhibitory concentration (IC50) in series [5] was 0.03 nM; in series [6] it was 0.15 nM.

For `CC1(C)Cc2nc3sc4c(NCCc5ccc6[nH]cnc6c5)ncnc4c3c(COc3ccccc3)c2CO1` [Compound 322, N-(2-(1H-Benzo[d]imidazol-5-yl)ethyl)-8,8-dimethyl-11-(phenoxymethyl)-7,10-dihydro-8H-pyrano[3″,4″:5′,6′]pyrido[3′,2′:4,5]thieno[3,2-d]pyrimidin-4-amine], the results for the EC50 (in [1] (setting [8]); in the series with SDH-WT cells (setting [9])) were less than 1000 nM and less than 1 µM, respectively.

As for `CC(C)COCc1c2c(nc3sc4c(NCCc5ccc6[nH]cnc6c5)ncnc4c13)CC(C)(C)OC2` [Compound 323, N-(2-(1H-Benzo[d]imidazol-5-yl)ethyl)-11-(isobutoxymethyl)-8,8-dimethyl-7,10-dihydro-8H-pyrano[3″,4″:5′,6′]pyrido[3′,2′:4,5]thieno[3,2-d]pyrimidin-4-amine], the concentration giving a half-maximal response (EC50) in series [1] (setting [8]) was less than 1000 nM; in the series on SDH-WT cells (setting [9]) it was less than 1 µM.

With `CC1(C)Cc2nc3sc4c(NCCc5ccc6[nH]cnc6c5)ncnc4c3c(COC3CCOCC3)c2CO1` [Compound 324, N-(2-(1H-Benzo[d]imidazol-5-yl)ethyl)-8,8-dimethyl-11-(((tetrahydro-2H-pyran-4-yl)oxy)methyl)-7,10-dihydro-8H-pyrano[3″,4″:5′,6′]pyrido[3′,2′:4,5]thieno[3,2-d]pyrimidin-4-amine], the EC50 was less than 1000 nM in series [1] (setting [8]) and less than 1 µM in the series on SDH-WT cells (setting [9]).

In the case of `CC1(C)Cc2nc3sc4c(NCCc5ccc6[nH]cnc6c5)ncnc4c3c(COC3CCCCC3)c2CO1` [Compound 327, N-(2-(1H-Benzo[d]imidazol-5-yl)ethyl)-11-((cyclohexyloxy)methyl)-8,8-dimethyl-7,10-dihydro-8H-pyrano[3″,4″:5′,6′]pyrido[3′,2′:4,5]thieno[3,2-d]pyrimidin-4-amine], the concentration giving a half-maximal response (EC50) in [1] (setting [8]) was less than 1000 nM; in the series with SDH-WT cells (setting [9]) it was less than 1 µM.

Regarding `CN1CCC(OCc2c3c(nc4sc5c(NCCc6ccc7[nH]cnc7c6)ncnc5c24)CC(C)(C)OC3)CC1` [Compound 328, N-(2-(1H-Benzo[d]imidazol-5-yl)ethyl)-8,8-dimethyl-11-(((1-methylpiperidin-4-yl)oxy)methyl)-7,10-dihydro-8H-pyrano[3″,4″:5′,6′]pyrido[3′,2′:4,5]thieno[3,2-d]pyrimidin-4-amine], the figures for the EC50 (in series [1] (setting [8]); in the series on SDH-WT cells (setting [9])) were 3000 to 10000 nM and 3 to 10 µM, respectively.

As to `CC1(C)Cc2nc3oc4c(NCCc5ccc6[nH]cnc6c5)ncnc4c3cc2CO1` [Compound 329], the half-maximal effective concentration (EC50) in series [1] (setting [8]) was less than 1000 nM; in the series with SDH-WT cells (setting [9]), less than 1 µM.

In the case of `COCCOCCOCCOCCN(C)Cc1c2c(nc3sc4c(NCCc5ccc6[nH]cnc6c5)ncnc4c13)CC(C)(C)OC2` [Compound 330, N-(2-(1H-Benzo[d]imidazol-5-yl)ethyl)-8,8-dimethyl-11-(2-methyl-5,8,11,14-tetraoxa-2-azapentadecyl)-7,10-dihydro-8H-pyrano[3″,4″:5′,6′]pyrido[3′,2′:4,5]thieno[3,2-d]pyrimidin-4-amine], the EC50 in series [1] (setting [8]) is less than 1000 nM; in the series on SDH-WT cells (setting [9]), 3 to 10 µM. Besides, the “differential toxicity, SDH-KO cells compared to SDH-WT cells” value (“differential toxicity, SDH-KO cells” for short) in [1] (72 hours) is given as more than 56.

Turning to `COCCOCCOCCN(C)Cc1c2c(nc3sc4c(NCCc5ccc6[nH]cnc6c5)ncnc4c13)CC(C)(C)OC2` [Compound 331, N-(2-(1H-Benzo[d]imidazol-5-yl)ethyl)-8,8-dimethyl-11-(2-methyl-5,8,11-trioxa-2-azadodecyl)-7,10-dihydro-8H-pyrano[3″,4″:5′,6′]pyrido[3′,2′:4,5]thieno[3,2-d]pyrimidin-4-amine], the EC50 was less than 1000 nM in [1] (setting [8]) and 3 to 10 µM in the series on SDH-WT cells (setting [9]). Also, the “differential toxicity, SDH-KO cells” value in series [1] (72 hours) is recorded as more than 42.

As to `COCCOCc1c2c(nc3sc4c(NCCc5ccc6[nH]cnc6c5)ncnc4c13)CC(C)(C)OC2` [Compound 332], the figures for the EC50 (in [1] (setting [8]); in the series with SDH-WT cells (setting [9])) were less than 1000 nM and 1 to 3 µM, respectively. Further, the “differential toxicity, SDH-KO cells” value in [1] (72 hours) was 235. The oral bioavailability entry in [7] (PO dosing vs IV bolus, plasma) was “low”. Further, the brain penetration result in series [7] (brain concentration after IP and IV bolus dosing at 2.50 mg/kg) was “brain penetrant”.

As for `CC1(C)Cc2nc3sc4c(NCCc5ccc6[nH]cnc6c5)ncnc4c3c(COC3CCCC3)c2CO1` [Compound 333], the EC50 in series [1] (setting [8]) was less than 1000 nM; in the series with SDH-WT cells (setting [9]) it was 1 to 3 µM.

Take `CN(C)Cc1c2c(nc3sc4c(NCCc5ccc6[nH]cnc6c5)ncnc4c13)CC(C)(C)OC2` [Compound 334]: the results for the EC50 (in series [1] (setting [8]); with SDH-WT cells (setting [9])) were less than 1000 nM and 3 to 10 µM, respectively.

Regarding `COCCCCc1c2c(nc3sc4c(NCCc5ccc6[nH]cnc6c5)ncnc4c13)CC(C)(C)OC2` [Compound 335], the EC50 in series [1] (setting [8]) was less than 1000 nM; in the series with SDH-WT cells (setting [9]) it was 3 to 10 µM.

By EC50 is commonly meant the concentration at which the effect is half-maximal. The term IC50 denotes the concentration that gives 50% inhibition.
